Results from ChEMBL document CHEMBL3727348, “3-(aryl or heteroaryl) methyleneindolin-2-one derivatives as inhibitors of cancer stem cell pathway kinases for the treatment of cancer” (2014).
pIC50: −log10 of the molar value. One block for each compound: values may come before it.

How the values were obtained:
[1] = biological target: Serine/threonine-protein kinase RIO2 (Homo sapiens) (UniProt Q9BVS4); test: Inhibition of N-terminal GST-fused full length human recombinant RIOK2 expressed in baculovirus Sf21 cells assessed as reduction in kinase auto-phosphorylation at 10 uM in presence of ATP incubated for 1 hr by ELISA method
Serine/threonine-protein kinase RIO2 (Homo sapiens), sequence (Q9BVS4 whole entry, looked up, the tested form may be a part): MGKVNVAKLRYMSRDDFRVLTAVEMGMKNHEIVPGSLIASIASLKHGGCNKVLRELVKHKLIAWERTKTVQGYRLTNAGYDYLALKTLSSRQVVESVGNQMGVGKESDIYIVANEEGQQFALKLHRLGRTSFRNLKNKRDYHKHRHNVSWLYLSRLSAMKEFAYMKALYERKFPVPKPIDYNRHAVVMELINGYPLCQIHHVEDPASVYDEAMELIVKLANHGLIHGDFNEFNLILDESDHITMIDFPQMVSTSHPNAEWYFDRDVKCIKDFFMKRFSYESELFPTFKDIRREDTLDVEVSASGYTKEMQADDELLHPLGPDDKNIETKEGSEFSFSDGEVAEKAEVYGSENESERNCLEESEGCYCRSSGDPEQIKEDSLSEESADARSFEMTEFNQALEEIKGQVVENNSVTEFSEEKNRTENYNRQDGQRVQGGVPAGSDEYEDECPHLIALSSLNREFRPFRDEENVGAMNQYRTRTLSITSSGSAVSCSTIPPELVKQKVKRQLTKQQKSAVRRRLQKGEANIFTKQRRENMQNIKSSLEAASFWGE

[2] = biological target: Serine/threonine-protein kinase RIO2 (Homo sapiens) (UniProt Q9BVS4); test: Inhibition of N-terminal GST-fused full length human recombinant RIOK2 expressed in baculovirus Sf21 cells assessed as reduction in kinase auto-phosphorylation at 1 uM in presence of ATP incubated for 1 hr by ELISA method
[3] = system: A549; test: Cytotoxic activity against human A549 cancer stem cells incubated for 72 hrs by Cell-titer-Glo luminescence assay; format: functional, cell-based; settings: A549, 72 h
[4] = system: FaDu; test: Cytotoxic activity against human FADU cancer stem cells incubated for 72 hrs by Cell-titer-Glo luminescence assay; format: functional, cell-based
[5] = system: FaDu; test: Cytotoxic activity against human FADU bulk cells incubated for 72 hrs by Cell-titer-Glo luminescence assay; format: functional, cell-based
[6] = biological target: AMP-activated protein kinase, AMPK (Homo sapiens) (UniProt P54646+O43741+P54619+Q9UGJ0+Q9Y478+Q13131+Q9UGI9); test: Inhibition of AMPK in human HeLa cells assessed as kinase phosphorylation level at 5 uM incubated for 6 hrs by SDS-PAGE based chemiluminescence assay; format: cell-based; set-up: scale not given: the % may be the effect or the level left
[7] = biological target: T1, Ribosomal protein S6 kinase (Homo sapiens) (UniProt P51812+Q9UBS0+O75676+Q15349+O75582+P23443+Q9UK32+Q15418); test: Inhibition of RPS6 kinase in human HeLa cells assessed as p-RPS6 Ser240/244 phosphorylation level at 5 uM incubated for 6 hrs by SDS-PAGE based chemiluminescence assay; format: cell-based; set-up: scale not given: the % may be the effect or the level left
[8] = system: A549; test: Cytotoxic activity against human A549 bulk cells incubated for 72 hrs by Cell-titer-Glo luminescence assay; format: functional, cell-based; settings: A549, 72 h
[9] = system: ACHN; test: Cytotoxic activity against human ACHN cancer stem cells incubated for 72 hrs by Cell-titer-Glo luminescence assay; format: functional, cell-based
[10] = system: ACHN; test: Cytotoxic activity against human ACHN bulk cells incubated for 72 hrs by Cell-titer-Glo luminescence assay; format: functional, cell-based
[11] = biological target: T1, Ribosomal protein S6 kinase (Homo sapiens); test: Inhibition of RPS6 kinase in human HeLa cells assessed as p-RPS6 Ser235/236 phosphorylation level at 5 uM incubated for 6 hrs by SDS-PAGE based chemiluminescence assay; format: cell-based; set-up: scale not given: the % may be the effect or the level left

Compound: CCN(CC)CCN(C)C(=O)c1c(C)[nH]c(/C=C2\C(=O)Nc3ccc(-c4cnn(-c5ccccc5)c4)cc32)c1C
- inhibition [1]: 113%
- inhibition [2]: 3%

Compound: CCN(CC)CCNC(=O)c1c(C)[nH]c(/C=C2\C(=O)Nc3ccc(-c4cnn(-c5ccccc5Cl)c4)cc32)c1C
- inhibition [1]: 99%
- inhibition [2]: 4%

Compound: CCN(CC)CCNC(=O)c1c(C)[nH]c(/C=C2\C(=O)Nc3ccc(-c4cnn(-c5cscn5)c4)cc32)c1C
- inhibition [1]: 99%
- inhibition [2]: 41%

Compound: CCN(CC)CCCNC(=O)c1c(C)[nH]c(/C=C2\C(=O)Nc3ccc(-c4cnn(-c5ccccc5)c4)cc32)c1C
- inhibition [1]: 96%
- inhibition [2]: 20%

Compound: Cc1[nH]c(/C=C2\C(=O)Nc3ccc(-c4cnn(-c5ccccc5)c4)cc32)c(C)c1C(=O)NC1CCNCC1
- inhibition [1]: 140%
- inhibition [2]: 17%

Compound: CCN(CC)CCNC(=O)c1c(C)[nH]c(/C=C2\C(=O)Nc3ccc(-c4ncc(-c5ccccc5)o4)cc32)c1C
- inhibition [1]: 56%
- pIC50 [3]: 6.46
- pIC50 [4]: 4.56
- inhibition [2]: 32%
- pIC50 [5]: 5.13

Compound: Cc1[nH]c(/C=C2\C(=O)Nc3ccc(-c4cnn(-c5ccccc5)c4)cc32)c(C)c1C(=O)NCC1(N)CCCC1
- inhibition [1]: 65%
- inhibition [2]: 7%

Compound: Cc1[nH]c(/C=C2\C(=O)Nc3ccc(-c4cnn(-c5ccccc5)c4)cc32)c(C)c1C(=O)NC1(CN2CCCCC2)CC1
- inhibition [1]: 107%
- inhibition [2]: 6%

Compound: CCN(CC)CCNC(=O)c1c(C)[nH]c(/C=C2\C(=O)Nc3ccc(-c4ccnn4-c4ccncc4)cc32)c1C
- inhibition [1]: 44%
- inhibition [2]: -6%

Compound: CCN(CC)CCNC(=O)c1c(C)[nH]c(/C=C2\C(=O)Nc3ccc(-c4cnn(-c5cnccn5)c4)cc32)c1C
- inhibition [1]: 95%
- inhibition [2]: 47%

Compound: CCN(CC)CCNC(=O)c1c(C)[nH]c(/C=C2\C(=O)Nc3ccc(-c4cnn(-c5nccs5)c4)cc32)c1C
- inhibition [1]: 111%
- inhibition [2]: 18%

Compound: Cc1[nH]c(/C=C2\C(=O)Nc3ccc(-c4cnn(-c5ccccc5)c4)cc32)c(C)c1C(=O)N[C@H]1CCCNC1
- inhibition [1]: 122%
- inhibition [2]: 1.4%

Compound: CCN(CC)CCNC(=O)c1c(C)[nH]c(/C=C2\C(=O)Nc3ccc(-c4ccnn4-c4cccc(C)c4)cc32)c1C
- inhibition [1]: 137%
- inhibition [2]: 29%

Compound: Cc1[nH]c(/C=C2\C(=O)Nc3ccc(-c4cnn(-c5ccccc5)c4)cc32)c(C)c1C(=O)NC[C@@H]1CCCN1
- inhibition [1]: 94%
- inhibition [2]: 13%

Compound: Cc1[nH]c(/C=C2\C(=O)Nc3ccc(-c4cnn(-c5ccccc5)c4)cc32)c(C)c1C(=O)NCCc1ncc[nH]1
- inhibition [1]: 25%
- inhibition [2]: -2%

Compound: CCN(CC)CCNC(=O)c1c(C)[nH]c(/C=C2\C(=O)Nc3ccc(-c4ccnn4-c4cccc(OC)c4)cc32)c1C
- inhibition [1]: 98%
- inhibition [2]: 51%

Compound: CCN(CC)CCNC(=O)c1c(C)[nH]c(/C=C2\C(=O)Nc3c2cccc3-c2cncnc2)c1C
- Activity [6]: 60%
- Activity [7]: 72%
- pIC50 [8]: 4.67
- pIC50 [3]: 4.56
- pIC50 [4]: 5.17
- pIC50 [9]: 4.96
- pIC50 [10]: 4.78
- Activity [11]: 71%
- pIC50 [5]: 4.44

Compound: Cc1cc(C)c(/C=C2\C(=O)Nc3ccc(-c4csc(C5CCNCC5)n4)cc32)[nH]1
- Activity [6]: 47%
- Activity [7]: 76%
- pIC50 [8]: 5.89
- pIC50 [3]: 6.06
- pIC50 [4]: 6.37
- pIC50 [9]: 7.05
- pIC50 [10]: 5.81
- Activity [11]: 76%
- pIC50 [5]: 5.79

Compound: CCN(CC)CCNC(=O)c1c(C)[nH]c(/C=C2\C(=O)Nc3ccc(-c4ccnn4-c4ccc(OC)cc4)cc32)c1C
- inhibition [1]: 106%
- inhibition [2]: 34%

Compound: CCN(CC)CCNC(=O)c1c(C)[nH]c(/C=C2\C(=O)Nc3ccc(-c4cnn(C5CCOCC5)c4)cc32)c1C
- inhibition [1]: 68%
- pIC50 [8]: 4.80
- pIC50 [4]: 5.59
- inhibition [2]: 32%
- pIC50 [10]: 4.98
- pIC50 [5]: 5.37

Compound: CCN(CC)CCNC(=O)c1c(C)[nH]c(/C=C2\C(=O)Nc3c2cccc3-c2cncc(C)c2)c1C
- Activity [6]: 50%
- Activity [7]: 59%
- pIC50 [8]: 5.47
- pIC50 [3]: 5.65
- pIC50 [4]: 5.66
- pIC50 [9]: 5.71
- pIC50 [10]: 5.77
- Activity [11]: 47%
- pIC50 [5]: 5.21

Compound: Cc1[nH]c(/C=C2\C(=O)Nc3ccc(-c4cnn(-c5ccccc5)c4)cc32)c(C)c1C(=O)NC[C@H]1CCCN1
- inhibition [1]: 126%
- inhibition [2]: 9%

Compound: Cc1[nH]c(/C=C2\C(=O)Nc3c2cccc3-c2csc(-c3ccccc3)n2)c(C)c1C(=O)N1CCN(C)CC1
- Activity [6]: 122%
- Activity [7]: 32%
- pIC50 [8]: 5.27
- pIC50 [3]: 5.38
- pIC50 [4]: 5.52
- pIC50 [9]: 6.30
- pIC50 [10]: 4.82
- Activity [11]: 2%
- pIC50 [5]: 5.27

Compound: CCN(CC)CCNC(=O)c1c(C)[nH]c(/C=C2\C(=O)Nc3ccc(-c4ccc(-c5ccccc5)cn4)cc32)c1C
- Activity [6]: 118%
- Activity [7]: 82%
- pIC50 [8]: 5.69
- pIC50 [3]: 5.42
- pIC50 [4]: 5.32
- pIC50 [9]: 6.19
- pIC50 [10]: 5.27
- Activity [11]: 61%
- pIC50 [5]: 5.57

Compound: CCN(CC)CCNC(=O)c1c(C)[nH]c(/C=C2\C(=O)Nc3c2cccc3-c2ccncc2)c1C
- Activity [6]: 56%
- Activity [7]: 65%
- pIC50 [8]: 5.16
- pIC50 [3]: 4.90
- pIC50 [4]: 5.36
- pIC50 [9]: 5.30
- pIC50 [10]: 5.19
- Activity [11]: 60%
- pIC50 [5]: 5.17

Compound: Cc1cc(C)c(/C=C2\C(=O)Nc3cccc(-c4ccncc4)c32)[nH]1
- Activity [6]: 75%
- Activity [7]: 47%
- pIC50 [8]: 4.88
- pIC50 [3]: 4.52
- pIC50 [4]: 4.91
- pIC50 [9]: 4.79
- pIC50 [10]: 4.70
- Activity [11]: 50%
- pIC50 [5]: 4.71

The next lines start with results.

- inhibition [1]: 130%
- inhibition [2]: 22%
Compound: Cc1[nH]c(/C=C2\C(=O)Nc3ccc(-c4cnn(-c5ccccc5)c4)cc32)c(C)c1C(=O)N[C@@H]1CCCNC1

- inhibition [1]: 104%
- inhibition [2]: 39%
Compound: CCN(CC)CCNC(=O)c1c(C)[nH]c(/C=C2\C(=O)Nc3ccc(-c4ccnn4-c4ccc(F)cc4)cc32)c1C

- inhibition [1]: 93%
- inhibition [2]: 14%
Compound: CCN(CC)CCNC(=O)c1c(C)[nH]c(/C=C2\C(=O)Nc3ccc(-c4ccnn4-c4ccccn4)cc32)c1C

- inhibition [1]: 43%
- inhibition [2]: -7%
Compound: CCOCCCNC(=O)c1c(C)[nH]c(/C=C2\C(=O)Nc3ccc(-c4cnn(-c5ccccc5)c4)cc32)c1C

- inhibition [1]: 116%
- inhibition [2]: 56%
Compound: CCN(CC)CCNC(=O)c1c(C)[nH]c(/C=C2\C(=O)Nc3ccc(-c4ccnn4-c4ccccc4F)cc32)c1C

- inhibition [1]: 134%
- inhibition [2]: 22%
Compound: Cc1[nH]c(/C=C2\C(=O)Nc3ccc(-c4cnn(-c5ccccc5)c4)cc32)c(C)c1C(=O)N[C@H]1[C@@H]2CNC[C@@H]21

- inhibition [1]: 112%
- inhibition [2]: 42%
Compound: CCN(CC)CCNC(=O)c1c(C)[nH]c(/C=C2\C(=O)Nc3ccc(-c4cnn(-c5ncccn5)c4)cc32)c1C

- Activity [6]: 47%
- Activity [7]: 88%
- Activity [11]: 79%
Compound: CCN(CC)CCNC(=O)c1c(C)[nH]c(/C=C2\C(=O)Nc3ccc(-c4csc(-c5ccc(O)cc5)n4)cc32)c1C
- pIC50 [8]: 5.51
- pIC50 [3]: 5.16
- pIC50 [4]: 5.73
- pIC50 [9]: 6.30
- pIC50 [10]: 5.86
- pIC50 [5]: 6.15

- Activity [6]: 35%
- Activity [7]: 42%
- Activity [11]: 5%
Compound: CCN(CC)CCNC(=O)c1c(C)[nH]c(/C=C2\C(=O)Nc3ccc(-c4csc(-c5ccccc5)n4)nc32)c1C
- pIC50 [8]: 5.76
- pIC50 [3]: 6.21
- pIC50 [4]: 6.96
- pIC50 [9]: 6.01
- pIC50 [10]: 5.86
- pIC50 [5]: 5.86

- inhibition [1]: 109%
- inhibition [2]: 40%
Compound: CCN(CC)CCNC(=O)c1c(C)[nH]c(/C=C2\C(=O)Nc3ccc(-c4cnn(-c5ccncn5)c4)cc32)c1C

- inhibition [1]: 87%
- inhibition [2]: 18%
Compound: CCN(CC)CCNC(=O)c1c(C)[nH]c(/C=C2\C(=O)Nc3ccc(-c4ccnn4-c4ccc(Cl)c(Cl)c4)cc32)c1C

- Activity [6]: 22%
- Activity [7]: 26%
- Activity [11]: 4%
Compound: CCN(CC)CCNC(=O)c1c(C)[nH]c(/C=C2\C(=O)Nc3ccc(-c4n[nH]c5ccccc45)cc32)c1C
- pIC50 [8]: 5.52
- pIC50 [3]: 5.25
- pIC50 [4]: 4.99
- pIC50 [9]: 5.88
- pIC50 [10]: 5.37
- pIC50 [5]: 5.55

- inhibition [1]: 82%
- inhibition [2]: 42%
Compound: CCN(CC)CCNC(=O)c1c(C)[nH]c(/C=C2\C(=O)Nc3ccc(-c4cnn(-c5cccnc5)c4)cc32)c1C

- inhibition [1]: 71%
- inhibition [2]: 26%
Compound: CCN(CC)CCNC(=O)c1c(C)[nH]c(/C=C2\C(=O)Nc3ccc(-c4cnn(-c5ccc(S(N)(=O)=O)cc5)c4)cc32)c1C

- Activity [6]: 8%
- Activity [7]: 23%
- Activity [11]: 2%
Compound: CCN(CC)CCNC(=O)c1c(C)[nH]c(/C=C2\C(=O)Nc3cccc(-c4ccc(-c5ccccc5)cc4)c32)c1C
- pIC50 [8]: 5.29
- pIC50 [3]: 5.36
- pIC50 [4]: 6.55
- pIC50 [9]: 6.48
- pIC50 [10]: 5.80
- pIC50 [5]: 5.95

- inhibition [1]: 68%
- inhibition [2]: 9%
Compound: CCN(CC)CCNC(=O)c1c(C)[nH]c(/C=C2\C(=O)Nc3ccc(-c4ccnn4-c4ccc(C(F)(F)F)cc4)cc32)c1C
